Source: patent US20030059956A1, “Method to follow progression of kidney disease” (priority 2001, published 2003)

System: urinary TGF-β1
Assay: Urinary TGF-β1 excretion in proteinuric patients, add-on losartan crossover trial on background lisinopril
Assay type: in vivo, human
Conditions: add-on losartan 50 mg/d for 4 weeks on lisinopril 40 mg/d
Experimental: Patients previously administered angiotensin-receptor blockers (ARBs) or with estimated creatinine clearances of less than 30 mumin were excluded. A separate group of 12 healthy volunteers with normal BP, normal albuminuria, and no history of kidney disease or diabetes served as the control group for urinary TGF-β1 levels.
The study was a two-period, crossover, randomized, controlled trial. Seventeen (17) patients were administered a sequence of either losartan, 50 mg/d, for 4 weeks, 2-week washout, and placebo for 4 weeks or placebo for 4 weeks, 2-week washout, and losartan, 50 mg/d, for 4 weeks. […] Twenty-four-hour urine was collected for protein, sodium, urea, creatinine, and urinary TGF-β1 measurement. Because standard therapy for patients with proteinuria and renal failure includes ACE inhibitors, ACE inhibitor therapy was not discontinued in any patient enrolled in the study.
Appropriate corrections for concentrations were made and values were expressed as TGF-β1 in picograms per milligram of creatinine. […] TGF-β expressed as TGF-β in picograms per milligram of creatinine was calculated as follows:
The normality assumption was tested with the Kolmogrov Smirnov statistic, and homogeneity of variances was tested using Lavene's test. […] Data were analyzed by two-way mixed-model analysis of variance with subjects as the random variable and drug or placebo assignment as the fixed variable. […]

CCCCc1nc(Cl)c(CO)n1Cc1ccc(-c2ccccc2-c2nn[nH]n2)cc1 [losartan] was tested, and the “reduction in urinary TGF-β1 levels” value (95% CI 16 to 55, P=0.017) was 38% and the “urinary TGF-β1 level after losartan” value (geometric mean, pre-losartan level 13.3 (95% CI 11.4 to 15.5)) was 8.2 pg/mg creatinine.
